{
  "source": "patent US7374920B2",
  "about": "“Ginkgo biloba levopimaradiene synthase” (priority 2001, dated 2008)",
  "origin": "cited, not measured here",
  "key": {"insect larvae": {"system": "insect larvae", "settings": "Schwarz, M., 1994; Matsumoto, et al., 1987; cited from earlier work"}, "[1]": {"biological_target": "platelet-activating factor (PAF) receptor (Homo sapiens, UniProt P25105)", "sequence (P25105 whole entry)": "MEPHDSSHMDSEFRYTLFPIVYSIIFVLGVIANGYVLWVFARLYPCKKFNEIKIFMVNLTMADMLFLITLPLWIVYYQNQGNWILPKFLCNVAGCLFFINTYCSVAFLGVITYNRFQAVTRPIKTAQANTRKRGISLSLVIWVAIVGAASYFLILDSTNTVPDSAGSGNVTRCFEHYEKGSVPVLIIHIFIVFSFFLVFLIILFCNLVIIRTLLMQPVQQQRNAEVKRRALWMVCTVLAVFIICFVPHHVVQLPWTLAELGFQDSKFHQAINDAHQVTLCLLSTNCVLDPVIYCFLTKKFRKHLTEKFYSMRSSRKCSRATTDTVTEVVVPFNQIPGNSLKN", "settings": "compared with the other ginkgolide diterpenes; cited from earlier work"}},
  "data": [
    {"smiles": "CC(C)(C)[C@]1(O)CC2OC(=O)CC23C(=O)OC2OC(=O)[C@H](O)C231", "note": "(some centres unmarked) [bilobalide]", "values": [
      {"measurement": "antifeedant activity", "setting": "insect larvae", "result": "significant antifeedant activities toward insect larvae"}
    ]},
    {"smiles": "CC1C(=O)OC2C(O)C34C5CC(C(C)(C)C)C36C(OC(=O)C6O)OC4(C(=O)O5)C12O", "note": "(centres unmarked) [ginkgolide B]", "values": [
      {"measurement": "PAF antagonist activity", "setting": "[1]", "result": "highest activity of the diterpenes"}
    ]}
  ]
}
